Earlier results on 1 compound are cited in patent US12130296B2, “Method for the direct detection and/or quantification of at least one compound with a molecular weight of at least 200” (SANIFIT THERAPEUTICS S.A., priority 2011, dated 2024).

For this data set the following is noted: 12 dissociable protons; Carbohydr Res 46, 159-171; 1976.

With `O=P(O)(O)O[C@H]1[C@H](OP(=O)(O)O)[C@@H](OP(=O)(O)O)[C@H](OP(=O)(O)O)[C@@H](OP(=O)(O)O)[C@H]1OP(=O)(O)O` [inositol hexaphosphate], the pKa values entry is “from negative values to more than 10”.
